Consider 1 molecule from paper PMC12809495, “Potential 14-3-3 binding sites in sirtuins reveal extended phosphosite-recognition modes” (Acta Crystallographica Section F: Structural Biology …, 2026).

Where a SMILES comes first, the peptide text is derived from it. [ ]: non-standard residue; d: D form. pS = N[C@@H](COP(=O)(O)O)C(=O)O

Test [1] addresses T1, 14-3-3 isoform theta (Homo sapiens, UniProt P27348).
T1 construct: His6; made in house; host or cells: Escherichia coli BL21 Rosetta (DE3)
T1 sequence (P27348 1-245): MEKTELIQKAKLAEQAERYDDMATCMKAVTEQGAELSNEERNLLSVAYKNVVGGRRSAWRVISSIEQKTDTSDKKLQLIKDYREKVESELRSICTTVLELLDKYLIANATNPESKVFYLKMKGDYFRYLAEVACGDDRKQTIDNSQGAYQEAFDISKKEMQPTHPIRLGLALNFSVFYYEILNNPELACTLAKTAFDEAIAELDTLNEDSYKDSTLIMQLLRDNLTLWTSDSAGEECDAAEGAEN
In words: Label-free microscale thermophoresis (MST) binding, 14-3-3 theta. The conditions noted are these: label-free MST, 0.6 µM 14-3-3 protein, 25 mM MES pH 6.5, 5 mM MgCl2, 5 mM CaCl2, 25°C; Kd from duplicate measurements; read-out: Affinity estimates by MicroScale Thermophoresis, 14-3-3 isoform theta (Kd). Here is the method:
The binding of phosphorylated sirtuin peptides (Fig. 1 ▸) was analyzed using the change in the intrinsic fluorescence signal of the 14-3-3 proteins measured with label-free microscale thermophoresis using a Nanotemper Monolith NT.LabelFree or NT.115. A typical binding experiment using 0.6 µM 14-3-3 protein was performed in a modified MST buffer consisting of 25 mM MES pH 6.5, 5 mM MgCl2, 5 mM CaCl2. The measurements were performed at 25°C using a LED power of 10–40%. All measurements were performed at least in duplicate, and the results shown are representative measurements individually fitted using GraFit 7 (Erathicus Software, Horley, United Kingdom).
Figure 1 Classification and analysis of sirtuin PSSM results for potential 14-3-3 phosphoserine binding sites. Peptides with a gray background were not analyzed experimentally. Score is the overall PSSM score for the phosphorylation site; rank is the order within the 17 proposed sirtuin binding sites. Conserved residues in the 14-3-3 motifs are marked in green. Residues with restricted (proline) or very flexible (glycine) protein backbone or with a very large side chain (tryptophan) are marked in red. Amino acids with the same or similar hydrophobicity/size are shown in magenta. Kd values from duplicate measurements are colored green for Kd < 100 µM. Fields marked in red indicate no binding or no successful experiment. TEXT PRINTED IN THE PICTURE: Sirt1 S26: Affinity estimates by MicroScale Thermophoresis [μM], 14-3-3 isoform sigma: none | Sirt1 S670: Affinity estimates by MicroScale Thermophoresis [μM], 14-3-3 isoform gamma: aggr.; Affinity estimates by MicroScale Thermophoresis [μM], 14-3-3 isoform epsilon: > 183; Affinity estimates by MicroScale Thermophoresis [μM], 14-3-3 isoform theta: 93; Affinity estimates by MicroScale Thermophoresis [μM], 14-3-3 isoform sigma: 5 | Sirt3 S103: Affinity estimates by MicroScale Thermophoresis [μM], 14-3-3 isoform gamma: aggr.; Affinity estimates by MicroScale Thermophoresis [μM], 14-3-3 isoform epsilon: > 267; Affinity estimates by MicroScale Thermophoresis [μM], 14-3-3 isoform theta: 52; Affinity estimates by MicroScale Thermophoresis [μM], 14-3-3 isoform sigma: 10 | Sirt3 S103wt: Affinity estimates by MicroScale Thermophoresis [μM], 14-3-3 isoform gamma: aggr.; Affinity estimates by MicroScale Thermophoresis [μM], 14-3-3 isoform theta: none; Affinity estimates by MicroScale Thermophoresis [μM], 14-3-3 isoform sigma: none | Sirt3 S105: Affinity estimates by MicroScale Thermophoresis [μM], 14-3-3 isoform gamma: aggr.; Affinity estimates by MicroScale Thermophoresis [μM], 14-3-3 isoform epsilon: > 215; Affinity estimates by MicroScale Thermophoresis [μM], 14-3-3 isoform theta: 60; Affinity estimates by MicroScale Thermophoresis [μM], 14-3-3 isoform sigma: none | Sirt5 S168: Affinity estimates by MicroScale Thermophoresis [μM], 14-3-3 isoform epsilon: aggr.; Affinity estimates by MicroScale Thermophoresis [μM], 14-3-3 isoform theta: aggr.; Affinity estimates by MicroScale Thermophoresis [μM], 14-3-3 isoform sigma: > 329 | Sirt6 T337: Affinity estimates by MicroScale Thermophoresis [μM], 14-3-3 isoform epsilon: > 420; Affinity estimates by MicroScale Thermophoresis [μM], 14-3-3 isoform sigma: 12 | Sirt6 S338: Affinity estimates by MicroScale Thermophoresis [μM], 14-3-3 isoform epsilon: 19; Affinity estimates by MicroScale Thermophoresis [μM], 14-3-3 isoform sigma: 24 | Sirt7 S136: Affinity estimates by MicroScale Thermophoresis [μM], 14-3-3 isoform epsilon: none; Affinity estimates by MicroScale Thermophoresis [μM], 14-3-3 isoform theta: 30; Affinity estimates by MicroScale Thermophoresis [μM], 14-3-3 isoform sigma: 49

The target of test [2] is T2, 14-3-3σ-ΔC (Homo sapiens, UniProt P31947).
T2 construct: His6; made in house; host or cells: Escherichia coli BL21 Rosetta (DE3)
T2 sequence (P31947 1-231 limits assumed): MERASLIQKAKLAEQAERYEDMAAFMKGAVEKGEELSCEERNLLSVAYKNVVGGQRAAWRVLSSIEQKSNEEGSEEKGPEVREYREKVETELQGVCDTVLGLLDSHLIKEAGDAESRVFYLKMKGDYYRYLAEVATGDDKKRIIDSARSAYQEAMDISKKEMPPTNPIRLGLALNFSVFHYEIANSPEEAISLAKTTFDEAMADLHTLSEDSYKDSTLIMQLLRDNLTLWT
Nature of the test: Isothermal titration calorimetry (ITC). Type of test: binding. The conditions noted are these: Fig. 3c; nanoITC, 150 µM 14-3-3σ-ΔC in cell, fourfold-concentrated peptide, 2 µl injections, 25°C, one-site fit; duplicate, error between fits; read-out: apparent Kd, ITC. Here is the method:
Peptide ligands were freshly prepared in the exact same buffer as was used for the gel-filtration run. Samples were degassed and temperature-equilibrated using a degassing station (TA Instruments). A volume of 250 µl of 14-3-3σ-ΔC protein sample at a concentration of 150 µM was transferred into the sample cell of a nanoITC (TA Instruments) and 50 µl of a fourfold-concentrated phosphorylated peptide was loaded into the injection needle. Multiple injection measurements were carried out at 25°C with a 300 rev min^−1 stirring rate and 300 s spacing between each 2 µl injection. The heat quantity post-injection was determined by integration of the measured peaks. The Sirt1^pS670 peptide behaved best and was measured in duplicate. Subtraction of heat of dilution measurements, peak integration and one-site binding fits were performed with NanoAnalyze (TA Instruments). The reported errors are the errors between fits of the measured duplicates.
Figure 3 Affinity measurements of Sirt1^pS670 and different Sirt3 peptides for 14-3-3σ-ΔC protein using MST and ITC experiments. […] (b) MST experiments of titrations of 14-3-3σ-ΔC with Sirt3^pS105 (squares) or Sirt3^pS103 (two independent runs, filled triangles and triangles) endecamer peptides and, for comparison, with nonphosphoylated Sirt3^S103 peptide (circles).

Consider `CC(C)C[C@H](NC(=O)[C@@H](N)C(C)C)C(=O)N[C@@H](CO)C(=O)N[C@@H](CO)C(=O)N[C@@H](CO)C(=O)N[C@@H](COP(=O)(O)O)C(=O)N[C@@H](CS)C(=O)NCC(=O)N[C@@H](CO)C(=O)N[C@@H](CC(N)=O)C(=O)N[C@@H](CO)C(=O)O` [Sirt1^pS670] (H-VLSSS[pS]CGSNS-OH), for which the Kd in test [1] is 93 µM; in test [2] it was 5 ± 4.2 µM.
